Experimental data reported in publication PMC4965148 (PLoS ONE, 2016).
Several values for one entry are separate records, joined by “and”; a condition that tells them apart may be missing. Equal values may be shown once. Read-outs that look alike come from different tables or passages of the source.

Experiments:
[1] = Plasma and brain concentrations after dosing; assay type: in vivo, rat; settings: rat, plasma, sc
Protocol: At specified time points after dosing, the forebrain (for occupancy), the remaining hindbrain (for brain drug exposure) and plasma were collected, frozen in chilled isopentane and stored at -80°C until assayed.
In brief, 50 μL of the plasma sample was extracted by protein precipitation with 150 μL acetonitrile containing an internal standard and 5 μL of supernatant injected into the LC-MS/MS system. Analytes were separated by reversed phase chromatography and detection of each analyte was achieved through selected reaction monitoring mode of mass spectrometry.

5-HT transporter = 5-HT transporter (Homo sapiens, UniProt P31645); test: Selectivity panel, binding
Chain of 5-HT transporter (P31645 whole entry): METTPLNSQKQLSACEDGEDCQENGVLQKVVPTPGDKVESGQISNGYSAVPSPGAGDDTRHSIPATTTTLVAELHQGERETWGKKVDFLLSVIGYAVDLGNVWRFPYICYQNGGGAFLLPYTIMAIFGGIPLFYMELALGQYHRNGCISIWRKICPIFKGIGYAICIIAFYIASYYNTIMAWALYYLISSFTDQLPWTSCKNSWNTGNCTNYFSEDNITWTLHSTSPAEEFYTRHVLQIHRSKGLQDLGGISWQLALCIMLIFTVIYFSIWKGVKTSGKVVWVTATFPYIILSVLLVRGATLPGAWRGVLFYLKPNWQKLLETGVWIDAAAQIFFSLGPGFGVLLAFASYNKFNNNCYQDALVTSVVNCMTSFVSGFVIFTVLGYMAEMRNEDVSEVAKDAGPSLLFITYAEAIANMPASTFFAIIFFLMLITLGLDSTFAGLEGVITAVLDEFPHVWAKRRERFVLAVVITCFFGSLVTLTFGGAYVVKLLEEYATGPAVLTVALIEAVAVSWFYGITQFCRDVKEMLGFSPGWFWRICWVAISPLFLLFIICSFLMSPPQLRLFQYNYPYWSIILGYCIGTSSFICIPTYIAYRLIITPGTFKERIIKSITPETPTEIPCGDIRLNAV

Muscarinic M4 = Muscarinic M4 (Homo sapiens, UniProt P08173); test: Selectivity panel, binding; settings: read-out: % inhibition @ 10 µM
Chain of Muscarinic M4 (P08173 whole entry): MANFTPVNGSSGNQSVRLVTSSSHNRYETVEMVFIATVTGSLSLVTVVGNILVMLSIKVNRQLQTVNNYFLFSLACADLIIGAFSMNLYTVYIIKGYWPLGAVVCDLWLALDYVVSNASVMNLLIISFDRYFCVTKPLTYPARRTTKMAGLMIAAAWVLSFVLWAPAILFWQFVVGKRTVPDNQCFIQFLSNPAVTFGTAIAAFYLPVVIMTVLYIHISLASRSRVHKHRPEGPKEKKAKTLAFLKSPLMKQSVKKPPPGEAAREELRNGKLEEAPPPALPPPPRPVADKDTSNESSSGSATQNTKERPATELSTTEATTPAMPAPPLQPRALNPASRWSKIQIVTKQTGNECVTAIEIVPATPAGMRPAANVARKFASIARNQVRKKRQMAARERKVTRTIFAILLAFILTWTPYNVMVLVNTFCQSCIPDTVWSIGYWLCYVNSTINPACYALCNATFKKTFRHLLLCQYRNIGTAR

CB1 = CB1 (Homo sapiens, UniProt P21554); test: Selectivity panel, binding; settings: read-out: % inhibition @ 10 µM
Acetylcholinesterase = Acetylcholinesterase (Electrophorus electricus, UniProt O42275); test: Selectivity panel, enzyme; assay type: biochemical; settings: Eel
Chain of Acetylcholinesterase (O42275 24-633): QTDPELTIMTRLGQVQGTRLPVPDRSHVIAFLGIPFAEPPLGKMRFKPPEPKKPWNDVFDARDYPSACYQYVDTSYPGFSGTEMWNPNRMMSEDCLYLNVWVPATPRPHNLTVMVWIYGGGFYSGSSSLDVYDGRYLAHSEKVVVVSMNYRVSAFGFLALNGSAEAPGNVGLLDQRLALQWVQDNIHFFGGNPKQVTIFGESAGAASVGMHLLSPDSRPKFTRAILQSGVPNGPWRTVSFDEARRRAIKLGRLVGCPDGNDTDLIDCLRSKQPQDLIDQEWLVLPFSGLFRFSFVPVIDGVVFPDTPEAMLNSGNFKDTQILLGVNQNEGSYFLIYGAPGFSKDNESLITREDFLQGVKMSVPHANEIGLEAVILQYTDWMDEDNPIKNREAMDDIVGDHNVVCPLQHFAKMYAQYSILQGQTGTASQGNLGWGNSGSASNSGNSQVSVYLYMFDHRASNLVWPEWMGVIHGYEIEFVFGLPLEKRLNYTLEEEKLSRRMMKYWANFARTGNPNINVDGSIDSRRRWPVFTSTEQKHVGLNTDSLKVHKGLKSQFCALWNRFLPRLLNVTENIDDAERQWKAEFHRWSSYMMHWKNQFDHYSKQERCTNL

MAO-B = MAO-B (Homo sapiens, UniProt P27338); test: Selectivity panel, enzyme; assay type: biochemical
Chain of MAO-B (P27338 whole entry): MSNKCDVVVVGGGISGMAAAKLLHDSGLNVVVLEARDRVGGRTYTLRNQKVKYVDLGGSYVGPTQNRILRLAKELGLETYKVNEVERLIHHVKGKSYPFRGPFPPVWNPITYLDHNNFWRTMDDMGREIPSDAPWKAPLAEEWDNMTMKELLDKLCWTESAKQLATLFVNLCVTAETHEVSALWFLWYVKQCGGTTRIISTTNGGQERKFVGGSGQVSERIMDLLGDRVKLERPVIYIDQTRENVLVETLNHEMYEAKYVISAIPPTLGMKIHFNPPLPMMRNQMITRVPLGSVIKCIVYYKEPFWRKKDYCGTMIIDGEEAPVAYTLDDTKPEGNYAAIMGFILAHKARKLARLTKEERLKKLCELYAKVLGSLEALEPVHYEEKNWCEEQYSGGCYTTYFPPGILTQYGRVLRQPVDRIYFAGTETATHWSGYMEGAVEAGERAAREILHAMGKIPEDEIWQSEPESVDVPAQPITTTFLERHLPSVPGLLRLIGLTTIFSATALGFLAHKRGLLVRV

Adrenergic α2C = Adrenergic α2C (Homo sapiens, UniProt P18825); test: Selectivity panel, binding
Chain of Adrenergic α2C (P18825 whole entry): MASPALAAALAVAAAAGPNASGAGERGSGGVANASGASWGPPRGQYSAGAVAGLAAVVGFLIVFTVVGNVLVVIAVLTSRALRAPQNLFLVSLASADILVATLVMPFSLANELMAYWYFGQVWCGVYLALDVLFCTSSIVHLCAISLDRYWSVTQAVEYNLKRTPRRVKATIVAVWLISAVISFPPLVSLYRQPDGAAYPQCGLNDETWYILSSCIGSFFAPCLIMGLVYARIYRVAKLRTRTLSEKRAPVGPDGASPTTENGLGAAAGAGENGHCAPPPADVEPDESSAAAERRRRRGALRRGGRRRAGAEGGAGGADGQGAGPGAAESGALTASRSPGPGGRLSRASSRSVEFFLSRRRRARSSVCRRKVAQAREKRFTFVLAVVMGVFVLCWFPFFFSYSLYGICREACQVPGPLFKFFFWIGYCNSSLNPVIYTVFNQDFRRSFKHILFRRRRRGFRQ

[2] = tested on: neonatal PCP treated rats; test: Rat neonatal PCP mismatch negativity
Description: Adult male rats treated neonatally with PCP were implanted with epidural screw electrodes at the following co-ordinates under isoflurane anesthesia: 6 mm rostral and 1 mm off midline to the left from bregma; 5.5 mm rostral to interaural line and 1 mm off to the right from midline. Following recovery EEG recordings were collected from conscious rats housed in individual sound attenuated chambers (Med Associates, St Albans, VT) with the recording electrodes tethered through a low torque commutator system (Plastics One Inc, Roannoke, VA) to a differential amplifier (gain x1000; Warner Instruments, Hamden, CT). […] Baseline EEG was first recorded using Spike v5.19 or later software (CED, Cambridge, UK) to ensure electrical connectivity and an acceptable EEG signal. A simultaneous video was used to assess the general state of the animals during the recordings. […] Tones (70 dB) were delivered through a speaker mounted in the top center of the housing chamber and presented at 450 ms intervals. In each experimental session 700 standard and 100 deviant tones were presented. Data were analyzed using Signal v4.09 software (CED, Cambridge, UK). Artifact free trials were visually identified, corrected for baseline shift using the first 100 ms of the pre-stimulus baseline, 30 Hz low-pass filtered using a second order Butterworth digital filter and averaged to give evoked potential for each subject.

L-type calcium channel = test: Selectivity panel, functional; assay type: cell-based; settings: Human
Muscarinic M3 = Muscarinic M3 (Homo sapiens, UniProt P20309); test: Selectivity panel, binding; settings: read-out: % inhibition @ 10 µM
Adrenergic α2A = Adrenergic α2A (Homo sapiens, UniProt P08913); test: Selectivity panel, binding
Chain of Adrenergic α2A (P08913 whole entry): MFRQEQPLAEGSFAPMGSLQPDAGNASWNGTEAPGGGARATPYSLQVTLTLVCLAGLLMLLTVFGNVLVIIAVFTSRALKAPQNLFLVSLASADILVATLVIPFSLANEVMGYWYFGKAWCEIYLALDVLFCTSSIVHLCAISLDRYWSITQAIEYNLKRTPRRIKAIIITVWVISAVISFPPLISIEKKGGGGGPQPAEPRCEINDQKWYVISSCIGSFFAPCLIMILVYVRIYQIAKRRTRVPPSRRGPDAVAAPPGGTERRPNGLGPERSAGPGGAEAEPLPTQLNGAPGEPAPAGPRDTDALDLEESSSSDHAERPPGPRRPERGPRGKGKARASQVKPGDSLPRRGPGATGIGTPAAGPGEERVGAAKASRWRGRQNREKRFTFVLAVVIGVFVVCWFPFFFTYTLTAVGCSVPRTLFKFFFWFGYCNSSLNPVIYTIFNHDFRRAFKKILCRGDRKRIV

MAO-A = MAO-A (Homo sapiens, UniProt P21397); test: Selectivity panel, enzyme; assay type: biochemical
α7 nAChR = target: T1, α7 nAChR (Mus musculus, UniProt P49582); test: Ex vivo α7 nAChR occupancy ([3H]-A-585539); assay type: in vivo
T1 construct: One forebrain hemisphere from each animal was thawed and homogenized in assay buffer; from tissue; host or cells: forebrain homogenate of dosed male C57Bl/6 mice
T1 sequence (P49582 23-502): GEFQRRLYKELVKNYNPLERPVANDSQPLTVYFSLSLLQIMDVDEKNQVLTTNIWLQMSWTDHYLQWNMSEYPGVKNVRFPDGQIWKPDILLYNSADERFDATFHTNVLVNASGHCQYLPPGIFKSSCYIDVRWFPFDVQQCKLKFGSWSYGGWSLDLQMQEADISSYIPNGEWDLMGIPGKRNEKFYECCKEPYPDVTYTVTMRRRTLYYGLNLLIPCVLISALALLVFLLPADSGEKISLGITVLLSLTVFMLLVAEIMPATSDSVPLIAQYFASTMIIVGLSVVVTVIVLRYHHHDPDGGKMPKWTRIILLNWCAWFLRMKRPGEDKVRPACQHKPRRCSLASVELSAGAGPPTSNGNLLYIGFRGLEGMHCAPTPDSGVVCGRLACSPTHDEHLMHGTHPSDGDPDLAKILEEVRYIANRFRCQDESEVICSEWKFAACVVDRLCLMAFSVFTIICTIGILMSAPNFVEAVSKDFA
Protocol: Occupancy determinations were made either on completion of behavioral testing or in satellite groups of animals dosed in parallel with behavioral testing. At specified time points after dosing, the forebrain (for occupancy), the remaining hindbrain (for brain drug exposure) and plasma were collected, frozen in chilled isopentane and stored at -80°C until assayed. […] Homogenized tissue aliquots were frozen immediately and stored at -80°C. […] The filters were washed with ice-cold assay buffer, punched into a clear plate and 200 μl scintillation fluid added per well. Bound radioactivity was measured using a Wallac Microbeta liquid scintillation counter. Specific binding was calculated by subtracting the value of the non-specific binding from that of the total binding in each sample. The percent occupancy was calculated as [1 –(specific binding in drug treated mice/specific binding in vehicle treated mice)] x 100.

Dopamine D1 = Dopamine D1 (Homo sapiens, UniProt P21728); test: Selectivity panel, binding
Chain of Dopamine D1 (P21728 whole entry): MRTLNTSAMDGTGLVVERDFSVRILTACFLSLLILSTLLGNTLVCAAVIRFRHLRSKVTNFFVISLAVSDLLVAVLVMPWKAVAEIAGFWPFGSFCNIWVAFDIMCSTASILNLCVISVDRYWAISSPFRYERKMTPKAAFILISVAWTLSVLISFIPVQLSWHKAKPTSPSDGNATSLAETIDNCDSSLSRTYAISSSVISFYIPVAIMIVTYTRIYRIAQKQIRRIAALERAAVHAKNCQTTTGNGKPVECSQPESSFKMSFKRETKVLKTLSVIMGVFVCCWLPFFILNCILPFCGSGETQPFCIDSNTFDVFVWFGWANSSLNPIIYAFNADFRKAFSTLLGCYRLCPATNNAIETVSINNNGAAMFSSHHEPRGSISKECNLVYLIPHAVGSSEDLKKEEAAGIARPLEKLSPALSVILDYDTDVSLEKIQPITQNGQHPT

5-HT2B = 5-HT2B (Homo sapiens, UniProt P41595); test: Selectivity panel, functional; assay type: cell-based
Chain of 5-HT2B (P41595 whole entry): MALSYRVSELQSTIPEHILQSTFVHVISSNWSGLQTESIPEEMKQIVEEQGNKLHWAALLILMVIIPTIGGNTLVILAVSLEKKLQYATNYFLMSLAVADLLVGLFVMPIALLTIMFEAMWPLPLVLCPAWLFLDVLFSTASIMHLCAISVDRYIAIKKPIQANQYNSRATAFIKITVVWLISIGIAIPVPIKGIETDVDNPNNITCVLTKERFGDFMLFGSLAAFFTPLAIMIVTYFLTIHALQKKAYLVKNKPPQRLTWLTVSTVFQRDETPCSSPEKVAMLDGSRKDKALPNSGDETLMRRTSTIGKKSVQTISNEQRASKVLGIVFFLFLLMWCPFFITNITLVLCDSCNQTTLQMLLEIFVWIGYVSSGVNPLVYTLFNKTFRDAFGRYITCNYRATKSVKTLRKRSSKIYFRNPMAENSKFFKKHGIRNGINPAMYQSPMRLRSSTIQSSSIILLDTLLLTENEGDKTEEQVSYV

Opiate Kappa = Opiate Kappa (Homo sapiens, UniProt P41145); test: Selectivity panel, binding
Rat Brain α7 nAChR = Rat Brain α7 nAChR (Rattus norvegicus, UniProt Q05941); test: [3H]-A-585539 filtration binding
Chain of Rat Brain α7 nAChR (Q05941 23-502): as the sequence (P49582 23-502) above, with T402A counted along it

GABA-A α1β2γ2 = GABA-A α1β2γ2 (Homo sapiens, UniProt P14867+P18507+P47870); test: Selectivity panel, functional; assay type: cell-based
PDE4 = test: Selectivity panel, enzyme; assay type: biochemical; settings: Human

Structure (SMILES): c1cn(-c2cc(NC3=NC[C@@]4(CN5CCC4CC5)O3)ncn2)cn1 [BMS-933043, (2R)-N-(6-(1H-imidazol-1-yl)-4-pyrimidinyl)-4'H-spiro[4-azabicyclo[2.2.2]octane-2,5'-[1,3]oxazol]-2'-amine]
- concentration at 30 min ([1]; 0.56 mg/kg, Rat N40 Gating, 0.56 mg/kg sc, 30 min, read-out: Plasma Mean ± SD): 146 ± 12 nM
- concentration at 30 min ([1]; 1 mg/kg, Rat MMN, 1 mg/kg sc, 30 min, read-out: Plasma Mean ± SD): 398 ± 139 nM
- concentration at 30 min ([1]; 1 mg/kg, Rat N40 Gating, 1 mg/kg sc, 30 min, read-out: Plasma Mean ± SD): 295 ± 27 nM
- concentration at 30 min ([1]; 3 mg/kg, Rat MMN, 3 mg/kg sc, 30 min, read-out: Plasma Mean ± SD): 1970 nM
- concentration at 30 min ([1]; 3 mg/kg, Rat N40 Gating, 3 mg/kg sc, 30 min, read-out: Plasma Mean ± SD): 1360 nM
- concentration at 30 min ([1]; subcutaneous, 10 mg/kg, N40 gating, read-out: average plasma concentration at dose with loss of efficacy): 3310 nM
- IC50 (5-HT transporter): > 30 µM
- inhibition at 10 µM (Muscarinic M4): 10%
- inhibition at 10 µM (CB1): -5%
- IC50 (Acetylcholinesterase): > 60 µM
- IC50 (MAO-B): > 30 µM
- IC50 (Adrenergic α2C): > 30 µM
- deviance detection (MMN) ([2]; 0.3 mg/kg sc): just failing to achieve statistical significance
- AUC (150-200 ms) of difference wave, Mean ([2]; Study 1, 0.01 mg/kg sc): -6.608e-005
- AUC (150-200 ms) of difference wave, Mean ([2]; Study 1, 0.1 mg/kg sc): -0.0001188
- AUC (150-200 ms) of difference wave, Mean ([2]; Study 2, 0.03 mg/kg sc): -0.0002362
- AUC (150-200 ms) of difference wave, Mean ([2]; Study 2, 0.1 mg/kg sc (so in the source)): -0.0001715
- AUC (150-200 ms) of difference wave, Mean ([2]; Study 3, 1 mg/kg sc): -0.000159
- AUC (150-200 ms) of difference wave, Mean ([2]; Study 3, 3 mg/kg sc): -0.0001341
- deviance detection (MMN) ([2]; doses of 0.03, 0.1, 1 and 3 mg/kg sc): significant deviance detection from a hypothetical zero
- Active dose range, Neonatal PCP MMN ([2]; sc): 0.03–3.0 (sc) mg/kg
- IC50 (L-type calcium channel): > 25 µM
- inhibition at 10 µM (Muscarinic M3): 18%
- IC50 (Adrenergic α2A): > 30 µM
- IC50 (MAO-A): > 30 µM
- EC50 (α7 nAChR): 1900 nM
- % ex vivo α7 nAChR occupancy (α7 nAChR; 0.3 mg/kg sc, 30 min, individual mice): 11.2% and -5.2% and 7.5% and -6.3%
- % ex vivo α7 nAChR occupancy (α7 nAChR; 1 mg/kg sc, 30 min): 18.3% and 25.5% and 25.4% and ~ 20%
- % ex vivo α7 nAChR occupancy (α7 nAChR; 3 mg/kg sc, 30 min, individual mice): 56.2% and 44.9% and 45.1%
- % ex vivo α7 nAChR occupancy (α7 nAChR; 10 mg/kg sc, 30 min): 76.4% and 74.8% and 75.4% and > 75%
- % ex vivo α7 nAChR occupancy (α7 nAChR; 100 mg/kg sc, 30 min, individual mice): 93.3% and 94.1% and 92.1%
- receptor occupancy at 1 mg/kg (α7 nAChR; mouse, sc, read-out: % ex vivo α7 nAChR occupancy, 1 mg/kg sc, 30 min): 23.9%
- receptor occupancy at 3 mg/kg (α7 nAChR; mouse, sc, read-out: % ex vivo α7 nAChR occupancy, 3 mg/kg sc, 30 min, individual mice): 41.3%
- receptor occupancy at 10 mg/kg (α7 nAChR; mouse, sc, read-out: % ex vivo α7 nAChR occupancy, 10 mg/kg sc, 30 min): 78.5%
- receptor occupancy at 100 mg/kg (α7 nAChR; mouse, sc, read-out: % ex vivo α7 nAChR occupancy, 100 mg/kg sc, 30 min, individual mice): 91.3%
- IC50 (Dopamine D1): > 30 µM
- EC50 (5-HT2B): > 10 µM
- IC50 (Opiate Kappa): > 30 µM
- Ki (Rat Brain α7 nAChR; Rat Brain α7 nAChR Ki (individual)): 2.67 nM and 2.99 nM and 3.08 nM and 3.74 nM and 3.2 nM and 3.82 nM
- Ki (Rat Brain α7 nAChR; Rat Brain α7 nAChR Mean ± SD Ki): 3 nM
- Ki (Rat Brain α7 nAChR; read-out: Rat Brain α7 nAChR Mean ± SD Ki): 3.3 nM
- IC50 (GABA-A α1β2γ2): > 30 µM
- IC50 (PDE4): > 30 µM
